Data reported in US11028090B2 (Dong Wha Pharm. Co., Ltd., priority 2017, dated 2021).
Where two headings read alike, the source gives them in different places.

Key:
[1] = tested on: acute myelogenous leukemia cells (MV-4-11 cells); assay: Cytotoxicity to acute myelogenous leukemia cells (MV-4-11 cells), CCK-8; conditions: Homo sapiens, MV4-11, 72 h
[2] = molecular target: BRD4 (BD1+BD2) bromodomain (Homo sapiens (Human), UniProt O60885); assay: BRD4 binding inhibition (AlphaScreen, GST-BRD4 vs tetraacetylated histone H4 peptide)
Summary of the method: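 GST-BRD4 (BD1+BD2) and biotinylated tetraacetyl-histone H4 peptide, each at 100 nM in HEPES pH 7.4 buffer with BSA and DTT, were combined with compound. Glutathione acceptor and streptavidin donor beads were added, then incubated 30 min at room temperature in the dark. Read-out was AlphaScreen signal.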

[3] = read-out: IC50, cytotoxicity against acute myelogenous leukemia cells
[4] = read-out: MV-4-11 Cytotoxicity IC50
[5] = GST-BRD4 (BD1+BD2) / biotinylated acetyl-histone H4 (Lys5,8,12,16) peptide, read-out: IC50, BRD4 binding inhibition
[6] = GST-BRD4 (BD1+BD2) vs biotinylated acetyl-histone H4 peptide, AlphaScreen, read-out: BRD4 IC50

Row | Structure (SMILES) | IC50 [2, 5] | IC50 [2, 6] | IC50 [1, 3] | IC50 [1, 4] | IC50 ([2]; IC50, BRD4 binding inhibition, GST-BRD4 (BD1+BD2) / biotinylated acetyl-histone H4 (Lys5,8,12,16) peptide)
1 | COc1ccc2c(c1)nc(NCCCCNC(=O)Cc1cccs1)c1nnc(C)n12 [Example 307, N-[4-(7-methoxy-1-methyl-[1,2,4]triazolo[4,3-a]quinoxaline-4-ylamino)-butyl]-2-thiophene-2-yl-acetamide] | ≤ 50 nM | 22 nM | ≤ 200 nM | 10 nM | –
2 | COc1ccc2c(c1)nc(NCCCCNC(=O)Cc1ccco1)c1nnc(C)n12 [Example 308, 2-furan-2-yl-N-[4-(7-methoxy-1-methyl-[1,2,4]triazolo[4,3-a]quinoxaline-4-ylamino)-butyl]-acetamide] | – | 58 nM | ≤ 200 nM | 20 nM | –
3 | COc1ccc2c(c1)nc(NCCCCNC(=O)CCC1CCCC1)c1nnc(C)n12 [Example 309, 3-cyclopentyl-N-[4-(7-methoxy-1-methyl-[1,2,4]triazolo[4,3-a]quinoxaline-4-ylamino)-butyl]-propionamide] | ≤ 10 nM | – | ≤ 200 nM | 110 nM | –
4 | COc1ccc2c(c1)nc(NCCCCNC(=O)C(NC(=O)OC(C)(C)C)C(C)C)c1nnc(C)n12 (stereo not shown) [Example 310, {1-[4-(7-methoxy-1-methyl-[1,2,4]triazolo[4,3-a]quinoxaline-4-ylamino)-butylcarbamoyl]-2-methyl-propyl}-carbamic acid-tert-butylester] | ≤ 50 nM | 42 nM | ≤ 200 nM | 126 nM | –
5 | COc1ccc2c(c1)nc(NCCCCNC(=O)C(N)C(C)C)c1nnc(C)n12 (stereo not shown) [Example 311, 2-amino-N-[4-(7-methoxy-1-methyl-[1,2,4]triazolo[4,3-a]quinoxaline-4-ylamino)-butyl]-3-methyl-butyramide] | ≤ 50 nM | 43 nM | – | 208 nM | –
6 | COc1ccc2c(c1)nc(NCCCCNC(=O)[C@@H](C(C)C)N(C)C)c1nnc(C)n12 [Example 312, 2-(R)-dimethylamino-N-[4-(7-methoxy-1-methyl-[1,2,4]triazolo[4,3-a]quinoxaline-4-ylamino)-butyl]-3-methyl-butyramide] | ≤ 50 nM | 18 nM | – | 510 nM | –
7 | COc1ccc2c(c1)nc(NCCCCNC(=O)[C@H](C(C)C)N(C)C)c1nnc(C)n12 [Example 313, 2-(S)-dimethylamino-N-[4-(7-methoxy-1-methyl-[1,2,4]triazolo[4,3-a]quinoxaline-4-ylamino)-butyl]-3-methyl-butyramide] | ≤ 50 nM | 33 nM | – | 570 nM | –
8 | COc1ccc2c(c1)nc(NCCCCNC(=O)[C@H](C(C)C)N1CCC(O)C1)c1nnc(C)n12 (stereo partly drawn) [Example 315, 2-(S)-(3-hydroxy-pyrrolidine-1-yl)-N-[4-(7-methoxy-1-methyl-[1,2,4]triazolo[4,3-a]quinoxaline-4-ylamino)-butyl]-3-methyl-butyramide] | ≤ 50 nM | 36 nM | – | 550 nM | –
9 | COc1ccc2c(c1)nc(NCCCCNC(=O)[C@H](C(C)C)N1CCC(O)CC1)c1nnc(C)n12 [Example 316, 2-(S)-(4-hydroxy-piperidine-1-yl)-N-[4-(7-methoxy-1-methyl-[1,2,4]triazolo[4,3-a]quinoxaline-4-ylamino)-butyl]-3-methyl-butyramide] | ≤ 50 nM | 41 nM | – | 730 nM | –
10 | COc1ccc2c(c1)nc(NCCCCNC(=O)[C@@H](NC(=O)C(C)(C)C)C(C)C)c1nnc(C)n12 [Example 323, (S)-2-(2,2-dimethyl-propionylamino)-N-[4-(7-methoxy-1-methyl-[1,2,4]triazolo[4,3-a]quinoxaline-4-ylamino)-butyl]-3-methyl-butyramide] | ≤ 50 nM | 35 nM | ≤ 200 nM | 107 nM | –
11 | COc1ccc2c(c1)nc(NCCCCNC(=O)[C@@H](NS(C)(=O)=O)C(C)C)c1nnc(C)n12 [Example 327, 2-(S)-methanesulfonylamino-N-[4-(7-methoxy-1-methyl-[1,2,4]triazolo[4,3-a]quinoxaline-4-ylamino)-butyl]-3-methyl-butyramide] | ≤ 50 nM | 18 nM | ≤ 200 nM | 140 nM | –
12 | COc1ccc2c(c1)nc(NCCCCNC(=O)c1ccccc1F)c1nnc(C)n12 [Example 328, 2-fluoro-N-[4-(7-methoxy-1-methyl-[1,2,4]triazolo[4,3-a]quinoxaline-4-ylamino)-butyl]-benzramide] | ≤ 50 nM | 43 nM | ≤ 200 nM | 190 nM | –
13 | COc1ccc2c(c1)nc(NCCCCNC(=O)Cc1ccccc1)c1nnc(C)n12 [Example 329, N-[4-(7-methoxy-1-methyl-[1,2,4]triazolo[4,3-a]quinoxaline-4-ylamino)-butyl]-2-phenyl-acetamide] | ≤ 50 nM | 35 nM | ≤ 200 nM | 19 nM | –
14 | COc1ccc2c(c1)nc(NCCCCNC(=O)NC(C)C)c1nnc(C)n12 [Example 330, 1-isopropyl-3-[4-(7-methoxy-1-methyl-[1,2,4]triazolo[4,3-a]quinoxaline-4-ylamino)-butyl]-urea] | ≤ 50 nM | 29 nM | ≤ 200 nM | 140 nM | –
15 | COc1ccc2c(c1)nc(NCCCCNC(=O)Oc1ccccc1)c1nnc(C)n12 [Example 333, [4-(7-methoxy-1-methyl-[1,2,4]triazolo[4,3-a]quinoxaline-4-ylamino)-butyl]-carbamic acid phenylester] | – | 18 nM | ≤ 200 nM | 110 nM | ≤ 50 nM
16 | COc1ccc2c(c1)nc(NCCCCNC(=O)SC(C)C)c1nnc(C)n12 [Example 336, [4-(7-methoxy-1-methyl-[1,2,4]triazolo[4,3-a]quinoxaline-4-ylamino)-butyl]-thiocarbamic acid-S-isopropyl ester] | ≤ 50 nM | 33 nM | ≤ 200 nM | 80 nM | –
17 | Cc1nnc2c(NCCCCNC(=O)CC(C)C)nc3cc(O)ccc3n12 [Example 340, N-[4-(7-hydroxy-1-methyl-[1,2,4]triazolo[4,3-a]quinoxaline-4-ylamino)-butyl]-3-methyl-butyramide] | ≤ 50 nM | 23 nM | ≤ 200 nM | 54 nM | –
18 | Cc1nnc2c(NCCCCNC(=O)CC(C)C)nc3cc(OCc4ccc(C#N)cc4)ccc3n12 [Example 341, N-{4-[7-(4-cyano-benzyloxy)-1-methyl-[1,2,4]triazolo[4,3-a]quinoxaline-4-ylamino]-butyl}-3-methyl-butyramide] | – | 71 nM | ≤ 200 nM | 52 nM | –

The remaining compounds from weak to strong by IC50 [2, 6], led by results:

Row | IC50 [2, 5] | IC50 [2, 6] | Structure (SMILES) | IC50 [1, 3] | IC50 [1, 4] | IC50 ([2]; IC50, BRD4 binding inhibition, GST-BRD4 (BD1+BD2) / biotinylated acetyl-histone H4 (Lys5,8,12,16) peptide)
19 | ≤ 50 nM | 17 nM | COc1ccc2c(c1)nc(NCCCCNC(=O)OC1CCCC1)c1nnc(C)n12 [Example 332, [4-(7-methoxy-1-methyl-[1,2,4]triazolo[4,3-a]quinoxaline-4-ylamino)-butyl]-carbamic acid cyclopentylester] | ≤ 200 nM | 10 nM | –
20 | ≤ 50 nM | 16 nM | COc1ccc2c(c1)nc(NCCCCNC(=O)NC1CCCCC1)c1nnc(C)n12 [Example 335, 1-cyclohexyl-3-[4-(7-methoxy-1-methyl-[1,2,4]triazolo[4,3-a]quinoxaline-4-ylamino)-butyl]-urea] | ≤ 200 nM | 40 nM | –
21 | ≤ 50 nM | 14 nM | COc1ccc2c(c1)nc(NCCCCNC(=O)[C@@H](NC(=O)CC(C)C)C(C)C)c1nnc(C)n12 [Example 322, (S)-N-[4-(7-methoxy-1-methyl-[1,2,4]triazolo[4,3-a]quinoxaline-4-ylamino)-butyl]-3-methyl-2-(3-methyl-butyrylamino)-butyramide] | ≤ 200 nM | 157 nM | –
22 | ≤ 50 nM | 12 nM | COc1ccc2c(c1)nc(NCCCCNC(=O)[C@@H](NC(=O)[C@@H](F)C(C)C)C(C)C)c1nnc(C)n12 [Example 321, (S)-2-(S)-fluoro-N-{1-[4-(7-methoxy-1-methyl-[1,2,4]triazolo[4,3-a]quinoxaline-4-ylamino)-butylcarbamoyl]-2-methyl-propyl}-3-methyl-butyramide] | – | 553 nM | –
23 | ≤ 50 nM | 11 nM | CCCOC(=O)N[C@H](C(=O)NCCCCNc1nc2cc(OC)ccc2n2c(C)nnc12)C(C)C [Example 319, (S)-{1-[4-(7-methoxy-1-methyl-[1,2,4]triazolo[4,3-a]quinoxaline-4-ylamino)-butylcarbamoyl]-2-methyl-propyl}-carbamic acid propylester] | ≤ 200 nM | 114 nM | –
24 | ≤ 10 nM | 10 nM | COc1ccc2c(c1)nc(NCCCCNC(=O)[C@@H](NC(=O)OCC(C)C)C(C)C)c1nnc(C)n12 [Example 318, (S)-{1-[4-(7-methoxy-1-methyl-[1,2,4]triazolo[4,3-a]quinoxaline-4-ylamino)-butylcarbamoyl]-2-methyl-propyl}-carbamic acid isobutylester] | ≤ 200 nM | 32 nM | –
25 | ≤ 10 nM | 8 nM | COc1ccc2c(c1)nc(NCCCCNC(=O)[C@@H](Br)C(C)C)c1nnc(C)n12 [Example 302, 2-(S)-bromo-N-[4-(7-methoxy-1-methyl-[1,2,4]triazolo[4,3-a]quinoxaline-4-ylamino)-butyl]-3-methyl-butyramide] | ≤ 200 nM | 66 nM | –
26 | ≤ 10 nM | 4 nM | COc1ccc2c(c1)nc(NCCCCNC(=O)[C@@H](NC(=O)OC(C)C)C(C)C)c1nnc(C)n12 [Example 320, (S)-{1-[4-(7-methoxy-1-methyl-[1,2,4]triazolo[4,3-a]quinoxaline-4-ylamino)-butylcarbamoyl]-2-methyl-propyl}-carbamic acid isopropylester] | – | 670 nM | –
